In patent US20250326753A1, “DUAL CXCR4-BTK INHIBITORS” (X4 Pharmaceuticals, Inc., priority 2022, published 2025):
Like-named read-outs stand apart in the source and are kept apart here.

What was measured:
BMX = target: T1, BMX (Homo sapiens, UniProt P51813); assay: PanQinase kinase panel: BMX; format: biochemical; conditions: read-out: INHIBITORY EFFECT @ 1 uM: BMX
T1 construct: purchased Reaction Biology Europe GmbH
T1 sequence (P51813 1-675): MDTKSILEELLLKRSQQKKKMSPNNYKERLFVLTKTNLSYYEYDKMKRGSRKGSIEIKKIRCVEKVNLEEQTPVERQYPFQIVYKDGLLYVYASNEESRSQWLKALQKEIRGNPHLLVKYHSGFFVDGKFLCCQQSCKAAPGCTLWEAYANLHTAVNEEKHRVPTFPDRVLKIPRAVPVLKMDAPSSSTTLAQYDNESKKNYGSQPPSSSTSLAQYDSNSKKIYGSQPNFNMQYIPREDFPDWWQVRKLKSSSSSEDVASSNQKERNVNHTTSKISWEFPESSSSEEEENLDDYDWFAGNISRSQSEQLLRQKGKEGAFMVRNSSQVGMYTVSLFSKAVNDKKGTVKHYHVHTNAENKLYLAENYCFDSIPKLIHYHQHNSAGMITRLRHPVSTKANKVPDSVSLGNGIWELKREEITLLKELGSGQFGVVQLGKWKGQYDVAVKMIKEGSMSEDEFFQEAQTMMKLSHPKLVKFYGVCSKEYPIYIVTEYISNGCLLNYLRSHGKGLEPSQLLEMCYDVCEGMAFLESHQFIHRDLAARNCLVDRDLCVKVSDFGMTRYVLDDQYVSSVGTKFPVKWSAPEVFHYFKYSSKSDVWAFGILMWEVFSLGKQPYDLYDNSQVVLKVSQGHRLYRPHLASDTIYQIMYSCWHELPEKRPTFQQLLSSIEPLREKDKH
Protocol: (§1) Screening procedures were performed in accordance with the company's on-line protocol [accessed on-line Mar.
(§2) For each kinase, the median value of the cpm of three wells was defined as “low control” (n=3). This value reflects unspecific binding of radioactivity to the plate in the absence of a protein kinase but in the presence of the substrate. Additionally, for each kinase the median value of the cpm of three other wells was taken as the “high control,” i.e. full activity in the absence of any inhibitor (n=3). The difference between high and low control of each enzyme was taken as 100% activity.
As part of the data evaluation the low control of each kinase was subtracted from the high control value as well as from their corresponding “compound values”.

MUSK = target: T2, MUSK (Homo sapiens, UniProt O15146); assay: PanQinase kinase panel: MUSK; format: biochemical
T2 construct: purchased Reaction Biology Europe GmbH
T2 sequence (O15146 24-869): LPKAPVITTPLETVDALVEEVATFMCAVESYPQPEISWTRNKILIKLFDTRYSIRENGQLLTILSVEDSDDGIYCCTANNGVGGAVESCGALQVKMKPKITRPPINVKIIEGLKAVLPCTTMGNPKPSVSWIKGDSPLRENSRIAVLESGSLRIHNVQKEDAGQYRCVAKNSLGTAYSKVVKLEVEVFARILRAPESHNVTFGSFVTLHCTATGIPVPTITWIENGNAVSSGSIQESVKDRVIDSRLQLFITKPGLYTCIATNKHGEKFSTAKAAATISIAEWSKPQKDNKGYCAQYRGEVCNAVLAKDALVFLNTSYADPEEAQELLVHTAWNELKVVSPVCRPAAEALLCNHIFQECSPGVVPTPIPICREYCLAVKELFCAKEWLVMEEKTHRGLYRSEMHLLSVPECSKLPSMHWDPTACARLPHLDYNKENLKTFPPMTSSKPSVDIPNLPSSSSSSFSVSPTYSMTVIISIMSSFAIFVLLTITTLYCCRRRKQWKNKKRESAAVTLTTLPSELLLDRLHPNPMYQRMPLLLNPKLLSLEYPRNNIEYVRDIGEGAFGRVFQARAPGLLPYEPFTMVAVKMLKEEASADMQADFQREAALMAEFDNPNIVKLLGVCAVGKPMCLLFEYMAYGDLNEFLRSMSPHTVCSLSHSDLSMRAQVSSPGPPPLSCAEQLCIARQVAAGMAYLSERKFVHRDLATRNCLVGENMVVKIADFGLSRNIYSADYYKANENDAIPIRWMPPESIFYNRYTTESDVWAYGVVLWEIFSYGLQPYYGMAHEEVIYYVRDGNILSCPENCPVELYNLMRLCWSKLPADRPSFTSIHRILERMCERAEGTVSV
Protocol: as §1, §2
As part of the data evaluation the low control of each kinase was subtracted from the high control value as well as from their corresponding “compound values”. The residual activity (in %) for each compound well was calculated by using the following formula: Res. Activity (%)=100×[(signal of compound−low control)/(high control−low control)].

MWCL-1 = assay: Apoptosis assay (annexin V flow cytometry) in Waldenstrom's Macroglobulinemia cells; format: cell-based, human; conditions: for IC50: Homo sapiens, read-out: Apoptosis IC50 (μM) in single-mutant WM Cell Lines (MWCL-1); for promoting apoptosis in WM cells (MWCL-1) compared with ibrutinib or zanubrutinib alone: in words
Protocol: Waldenström's Macroglobulinemia cells (MWCL-1) and the bone marrow stromal cells (BMSCs; HS-27A) were used in this study. The MWCL-1 is a lymphoplasmacytic lymphoma established from the bone marrow aspirate of a patient diagnosed with Waldenström's Macroglobulinemia. It was provided by Dr Stephen M. Ansell (MAYO file number 2021-121; 200 First Street SW, Rochester, Minnesota). This cell line was cultured in RPMI-1640 (Fisher Scientific) containing 10% fetal bovine serum (FBS) (Sigma Aldrich, St Louis, MO), 100U/ml of Penicillin-Streptomycin (Gibco™, ThermoFisher Scientific). The HS-27A bone marrow stromal cells were obtained from ATCC. They were maintained in RPMI 1640 (Fisher Scientific) supplemented with 100U/ml of Penicillin-Streptomycin (Gibco™, ThermoFisher Scientific) and 10% FBS (TakaraBio). Cells were cultured in a 37° C. tissue culture CO2 incubator.
For studies with compounds using a co-culture system of MWCL-1 and BMSCs, BMSCs were cultured in a 96-, 48- or 24-well plates and cultured until the 90% confluence was reached. […] After 1 hour, the MWCL-Icells were added to the BMSC to create a co-culture system. The cells were co-incubated for 72 hours. After incubation time, cell viability, apoptosis, and IgM release were measured.
For studying the effect of compounds on inducing apoptosis of Waldenström Macroglobulinemia cells (MWCL-1). Cells were washed with PBS, resuspended in Annexin V binding buffer (Biolegend), and stained with Alexa Fluor 647 annexin V (Biolegend), Propidium Iodide (BD Pharmigen), and CD45 antibody (Biolegend) for 15 minutes at RT and analyzed by flow cytometry. Data were collected on an CytoFLEX S Flow Cytometer (Beckman Coulter) and analysed with FCS Express Software (De Novo Software). Annexin V positive cells were considered apoptotic.

[1] = read-out: INHIBITORY EFFECT @ 1 uM: MUSK

Row | Compound | inhibition at 1 µM (BMX) | inhibition at 1 µM (MUSK; [1]) | IC50 (MWCL-1; numeric) | IC50 (MWCL-1; class symbol) | promoting apoptosis in WM cells (MWCL-1) compared with ibrutinib or zanubrutinib alone (MWCL-1) | inhibition at 1 µM (MUSK; at 1 μM, read-out: inhibition of MUSK)
1 | COc1ccc(F)cc1C(=O)NCc1ccc(-c2nn([C@@H](C)C(F)(F)F)c(N)c2C(N)=O)cc1 [LOXO-305, pirtobrutinib] | 50 to 69% | < 50% | – | – | – | –
2 | C=CC(=O)N1CCC([C@@H]2CCNc3c(C(N)=O)c(-c4ccc(Oc5ccccc5)cc4)nn32)CC1 [Zanubrutinib, (7S)-2-(4-phenoxyphenyl)-7-(1-prop-2-enoylpiperidin-4-yl)-4,5,6,7-tetrahydropyrazolo[1,5-a]pyrimidine-3-carboxamide] | – | < 50% | 17.7 µM | – | – | –
3 | O=C(c1ccc(Oc2ccccc2)cc1Cl)c1c[nH]c2ncnc(N[C@@H]3CC[C@@H](CO)OC3)c12 [ARQ-531, (2-chloro-4-phenoxyphenyl) (4-(((3R,6S)-6-(hydroxymethyl)tetrahydro-2H-pyran-3-yl)amino)-7H-pyrrolo[2,3-d]pyrimidin-5-yl) methanone] | 90 to 100% | – | – | – | – | –
4 | Cc1cccnc1[C@H]1CCC[C@@H](c2ncccc2C)N1CCN1CCN(C(=O)c2ccc(-c3cc4c(-c5cccc(NC(=O)c6ccccc6)c5C)ncnc4[nH]3)cc2)CC1 [Compound I-10, N-(3-(6-(4-(4-(2-((2R,6S)-2,6-bis(3-methylpyridin-2-yl)piperidin-1-yl)ethyl)piperazine-1-carbonyl)phenyl)-7H-pyrrolo[2,3-d]pyrimidin-4-yl)-2-methylphenyl)benzamide] | 70 to 89% | 70 to 89% | – | 0.1 to 2 µM | more effective in promoting apoptosis | 50 to 89%
5 | Cc1cc(-c2ccnc(Nc3cnn(CCN4[C@@H](c5ncccc5C)CCC[C@H]4c4ncccc4C)c3)n2)ccc1CNC(=O)N1CC(OC(C)C)C1 [Compound I-11] | – | – | – | 0.1 to 2 µM | more effective in promoting apoptosis | –
